Literature values as cited in US20210198302A1, “OLIGOSACCHARIDE COMPOSITIONS AND METHODS OF USE THEREOF FOR REDUCING AMMONIA LEVELS” (Kaleido Biosciences, Inc., priority 2018, published 2021).

Tested on: OHE patients
Conditions: administered in combination with lactulose

## CO[C@H]1/C=C/O[C@@]2(C)Oc3c(C)c(O)c4c(O)c(c5c(nc6cc(C)ccn65)c4c3C2=O)NC(=O)/C(C)=C\C=C\[C@H](C)[C@H](O)[C@@H](C)[C@@H](O)[C@@H](C)[C@H](OC(C)=O)[C@@H]1C [rifaximin]
  reduction of episodes of OHE: approximately 50%
